Measured values taken from PubChem BioAssay AID1963854 (Molecular Pharmacology Branch, DTP, NCI, 2024).
Values joined by “and” are separate entries in the source; they are usually repeats but may differ in a detail not shown here. Equal entries are not always repeated.

Test system: 186277-243-T-J2-PDC complex spheroid viability
Test: Anticancer human tumor 186277-243-T-J2-PDC patient-derived colon adenocarcinoma cell line growth inhibition [POLQ]
Conditions: for viability, T/C: stronger effect = lower value; active = viability on the fitted dose curve at most 10% of control; inactive = the rest
Procedure: Multicellular complex tumor spheroid response to Polymerase (POL) inhibitors (novobiocin, ART-558, RP6685) in combination with a variety of drugs and investigational agents in selected tumor cell lines
The POL inhibitors (novobiocin, ART-558, and RP6685) were evaluated both individually and in combination with standard of care and investigational anticancer small molecules within a complex spheroid model of solid tumors. . Complex spheroids include a stromal component modeled by human endothelial cells (HUVEC) and fibroblasts modeled by human mesenchymal stem cells (MSCs). The concentration ranges selected for each drug and investigational agent were based upon clinically achievable concentrations if the clinical Cmax of the agent was known.
Compounds. The drugs and investigational agents: novobiocin (NSC847541), ART-558 (NSC835418), RP-6685 (NSC848927), peposertib (NSC802822), ceralasertib (NSC780249), elimusertib (NSC800525), camonsertib (NSC841442), AZD-1390 (NSC803789), olaparib (NSC753686), talazoparib (NSC767125), rucaparib (NSC756644), sotorasib (NSC818433), MRTX-1133 (NSC836407), SN-38 (NSC673596), topotecan (NSC609699), epotoside (NSC141540), doxorubicin (NSC123127), gemcitabine (NSC613327), 5-fluorouracil (NSC19893), paclitaxel (NSC125973), vemurafenib (NSC761431), MSA-2 (NSC828583), SN-011 (NSC837082), adavosertib (NSC754352), prexasertib (NSC758257), carboplatin (NSC241240) and oxaliplatin (NSC266046), were obtained from the National Cancer Institute (NCI) Developmental Therapeutics Program Chemical Repository (21). The FDA-approved anticancer drug set is available from the Developmental Therapeutics Program at https://dtp.cancer.gov/organization/dscb/obtaining/. […] The stock solutions were prepared in dimethyl sulfoxide (DMSO, Sigma-Aldrich, St. Louis, MO, cat. D2650), except for the platinum compounds which were prepared in saline (Quality Biological, Gaithersburg, MD, cat. 114-055-101), at 800-fold the tested concentration and stored at -70 degrees C prior to their use. All drugs and investigational agents were tested over a range starting from a high concentration at or near the clinical Cmax and decreasing in half-log increments. If the clinical Cmax for an agent had not been determined, the highest concentration tested was 10 microM, except for SN-38, which was tested at a high concentration of 1 microM.
Cell Culture. All cells were maintained in an incubator at 37 degrees C and 5% CO2 with 95% humidity. The PDC lines were cultured according to standard operating procedures established by the NCI PDMR (https://pdmr.cancer.gov). Table 3 of the manuscript, lists the cell lines along with the number of the three cell types plated to form the mct-spheroids and media for tumor cell growth. After thawing, all PDC lines, except 997537-175-T-J1-PDC and 415267-285-R-J2-PDC, were cultured in Matrigel-coated flasks prepared with a working solution of 1X Ham's F-12 nutrient mix, without supplementation (Thermo Fisher Scientific, cat. 11765054), 100 U/mL penicillin-streptomycin (Thermo Fisher Scientific, cat. 15140122), and 2.5% Matrigel (Corning Inc., Corning, NY, cat. 354248) for the first three passages. The two PDC lines 997537-175-T-J1-PDC and 415267-285-R-J2-PDC were cultured on uncoated flasks. The 857933-349-R-J2-PDC line was cultured in 6C/Colon 1B media containing advanced DMEM/F-12 (Thermo Fisher Scientific, cat. 12634028), 10 mM HEPES (Thermo Fisher Scientific, cat. 15630080), 1X GlutaMAX supplement (Thermo Fisher Scientific, cat. 35050061), 0.1 mg/mL primocin (InvivoGen, San Diego, CA, cat. ant-pm-2), 10% defined fetal bovine serum, heat inactivated (HyClone Laboratories Inc., Logan, UT, cat. SH30070.03HI), 50% L-WRN conditioned media (ATCC, cat. CRL-3276), 1.25 mM N-Acetyl-L-cysteine (Sigma-Aldrich, cat. A9165), 10 mM nicotinamide (Sigma-Aldrich, cat. N0636), 1X B-27 supplement (Thermo Fisher Scientific, cat. 17504044), 1X N-2 supplement (Thermo Fisher Scientific, cat. […]

[1] = curve of first compound, second compound 0.0316 µM
[2] = curve of first compound, second compound 0.1 µM
[3] = curve of first compound, second compound 0.316 µM
[4] = curve of first compound, second compound 1 µM
[5] = curve of first compound, second compound 3.16 µM
[6] = curve of first compound, second compound 10 µM
[7] = second compound 0.0316 µM, first compound 0.0316 µM
[8] = second compound 0.0316 µM, first compound 0.1 µM
[9] = second compound 0.0316 µM, first compound 0.316 µM
[10] = second compound 0.0316 µM, first compound 1 µM
[11] = second compound 0.1 µM, first compound 0.0316 µM
[12] = second compound 0.1 µM, first compound 0.1 µM
[13] = second compound 0.1 µM, first compound 0.316 µM
[14] = second compound 0.1 µM, first compound 1 µM
[15] = second compound 0.316 µM, first compound 0.0316 µM
[16] = second compound 0.316 µM, first compound 0.1 µM
[17] = second compound 0.316 µM, first compound 0.316 µM
[18] = second compound 0.316 µM, first compound 1 µM
[19] = second compound 1 µM, first compound 0.0316 µM
[20] = second compound 1 µM, first compound 0.1 µM
[21] = second compound 1 µM, first compound 0.316 µM
[22] = second compound 1 µM, first compound 1 µM
[23] = second compound 3.16 µM, first compound 0.0316 µM
[24] = second compound 3.16 µM, first compound 0.1 µM
[25] = second compound 3.16 µM, first compound 0.316 µM
[26] = second compound 3.16 µM, first compound 1 µM
[27] = second compound 10 µM, first compound 0.0316 µM
[28] = second compound 10 µM, first compound 0.1 µM
[29] = second compound 10 µM, first compound 0.316 µM
[30] = second compound 10 µM, first compound 1 µM
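Also: spheroids exposed to compounds for seven days.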

Nc1ccn(C2OC(CO)C(O)C2(F)F)c(=O)n1 (stereo unspecified)
6.46% and 13.6% and 5.49%: viability, T/C (compound 10 µM)
< 31.6 nM: IC50 (curve of compound)
7.05% and 13.8% and 6.01%: viability, T/C (compound 0.316 µM)
6.01% and 12.5% and 5.9%: viability, T/C (compound 0.1 µM)
7.08% and 13.1% and 7.05%: viability, T/C (compound 0.0316 µM)
7.56% and 13.9% and 6.67%: viability, T/C (compound 3.16 µM)
8.16% and 14.3% and 6.86%: viability, T/C (compound 1 µM)

CCc1cc2c(N3CCc4c(cc(Cn5ccnc5)cc4-c4cn(C)nc4C(F)(F)F)C3=O)cc(C)nc2c(OC)n1 + COC1C(OC(N)=O)C(O)C(Oc2ccc3c(O)c(NC(=O)c4ccc(O)c(CC=C(C)C)c4)c(=O)oc3c2C)OC1(C)C
inactive: viability, T/C [7] 100% | viability, T/C [8] 91.7% | viability, T/C [9] 101% | viability, T/C [10] 80.4% | viability, T/C (second compound 0.0316 µM, first compound 3.16 µM) 80.5% | viability, T/C (second compound 0.0316 µM, first compound 10 µM) 77.4% | viability, T/C [11] 88.1% | viability, T/C [12] 92.2% | viability, T/C [13] 92.7% | viability, T/C [14] 96.9% | viability, T/C (second compound 0.1 µM, first compound 3.16 µM) 100% | viability, T/C (second compound 0.1 µM, first compound 10 µM) 80.4% | viability, T/C [15] 95.6% | viability, T/C [16] 101% | viability, T/C [17] 101% | viability, T/C [18] 93.5% | viability, T/C (second compound 0.316 µM, first compound 3.16 µM) 85.3% | viability, T/C (second compound 0.316 µM, first compound 10 µM) 84.4% | viability, T/C [19] 99.1% | viability, T/C [20] 101% | viability, T/C [21] 111% | viability, T/C [22] 104% | viability, T/C (second compound 1 µM, first compound 3.16 µM) 104% | viability, T/C (second compound 1 µM, first compound 10 µM) 73.7% | viability, T/C [23] 93.4% | viability, T/C [24] 96.6% | viability, T/C [25] 86.3% | viability, T/C [26] 86.2% | viability, T/C (second compound 3.16 µM, first compound 3.16 µM) 98.9% | viability, T/C (second compound 3.16 µM, first compound 10 µM) 72.4% | viability, T/C [27] 96.5% | viability, T/C [28] 102% | viability, T/C [29] 104% | viability, T/C [30] 107% | viability, T/C (second compound 10 µM, first compound 3.16 µM) 99.2% | viability, T/C (second compound 10 µM, first compound 10 µM) 86.1%
> 10000 nM: IC50 [1] | IC50 [2] | IC50 [3] | IC50 [4] | IC50 [5] | IC50 [6]

CCc1c2c(nc3ccc(O)cc13)-c1cc3c(c(=O)n1C2)COC(=O)[C@]3(O)CC + Nc1ccc(C#CCN(C(=O)Cc2ncc(C(F)(F)F)cc2C(F)(F)F)c2ccc(F)cc2)nn1
27.4 nM: IC50 [4]
30.9 nM: IC50 [1]
21.4 nM: IC50 [6]
25.5 nM: IC50 [5]
inactive: viability, T/C (second compound 0.0316 µM, first compound 0.00316 µM) 114% | viability, T/C (second compound 0.0316 µM, first compound 0.01 µM) 87.4% | viability, T/C [7] 49.6% | viability, T/C [8] 26.4% | viability, T/C [9] 20.3% | viability, T/C [10] 18.1% | viability, T/C (second compound 0.1 µM, first compound 0.00316 µM) 122% | viability, T/C (second compound 0.1 µM, first compound 0.01 µM) 87.1% | viability, T/C [11] 49.9% | viability, T/C [12] 24.7% | viability, T/C [13] 20.8% | viability, T/C [14] 19.1% | viability, T/C (second compound 0.316 µM, first compound 0.00316 µM) 128% | viability, T/C (second compound 0.316 µM, first compound 0.01 µM) 86.9% | viability, T/C [15] 43.2% | viability, T/C [16] 23.1% | viability, T/C [17] 22.4% | viability, T/C [18] 19.4% | viability, T/C (second compound 1 µM, first compound 0.00316 µM) 125% | viability, T/C (second compound 1 µM, first compound 0.01 µM) 82.5% | viability, T/C [19] 46.8% | viability, T/C [20] 24.2% | viability, T/C [21] 20.6% | viability, T/C [22] 18.3% | viability, T/C (second compound 3.16 µM, first compound 0.00316 µM) 114% | viability, T/C (second compound 3.16 µM, first compound 0.01 µM) 82.9% | viability, T/C [23] 43.5% | viability, T/C [24] 20.9% | viability, T/C [25] 18.5% | viability, T/C [26] 18.1% | viability, T/C (second compound 10 µM, first compound 0.00316 µM) 100% | viability, T/C (second compound 10 µM, first compound 0.01 µM) 71.8% | viability, T/C [27] 40.2% | viability, T/C [28] 18.5% | viability, T/C [29] 17% | viability, T/C [30] 15.9%
30 nM: IC50 [2]
26.1 nM: IC50 [3]
